Test results taken from patent US10604513B2, “Pyridone derivative comprising heteroatomic ring butane substituent, for treating fibrosis and inflammatory diseases” (SHIJIAZHUANG SAGACITY NEW DRUG DEVELOPMENT CO., LTD., priority 2016, dated 2020).

Key:
[1] = test system: endotoxin (LPS)-induced TNF-α in rat blood; test: Effect of compounds on endotoxin (LPS)-induced TNF-α in rat blood in vitro; format: cell-based, Sprague Dawley rats; details: for inhibition of TNF-α level induced by LPS (in words): compared with Pirfenidone; for inhibition at 100 µM: tested concentration of compound 0.1 mM; for inhibition at 100 µM / inhibition at 500 µM: LPS 100 μg/mL, rat blood, 5 h; for inhibition at 500 µM: tested concentration of compound 0.5 Mm (footnote *)
Method: Main task: evaluation on effect of compounds on endotoxin (LPS)-induced TNF-α in rat blood in vitro
Experimental purpose: testing effect of compounds on endotoxin (LPS)-induced TNF-α in rat blood in vitro, and evaluate effect of compounds on endotoxin (LPS)-induced TNF-α in rat blood in vitro
Sprague Dawley rats (male, 210-260 g, Shanghai Slac Laboratory Animal CO. LTD) Rat TNF-alpha Quantikine ELISA Kit (R&D, #SRTA00)
A solution of the compound was prepared (5 mM or 1 mM), 40 μL was added into a 48-well cell culture plate, respectively (the final concentration was 0.5 or 0.1 mM). The rats were hocussed with isoflurane and blood was collected from the abdominal aorta (Heparin anticoagulant). The blood was added into a 48-well cell culture plate (320 μL per well) containing the compounds to be tested. And then the 48-well cell culture plate was incubated at 37° C. After 30 min, the plate was added with 40 μL LPS (the final concentration was 100 μg/mL), and then were incubated at 37° C. after mixed. After 5 h, the 48-well plate was taken out and the blood was transferred into 1.5 mL centrifuge tubes and centrifuged in the centrifugal machine (4,500 rpm, 4° C., 5 min). The upper plasma was separated and kept portions (20 μL per well) into 96-well sample plate, and then sharp-frozen and preserved at refrigerator (−80° C.). The second day, the TNF-α level on the blood samples was tested by using R&D ELISA kits according to the kit specification. The data was analyzed by EXCEL and Prism.

[2] = test system: SD rat pulmonary fibrosis induced by Bleomycin; test: Efficacy trial in vivo: SD rat pulmonary fibrosis induced by Bleomycin; details: for improving tissue damage in the area and margin of pulmonary fibrosis lesions: doses per Table 5, FIGS. 1-4; for efficacy compared with the reference compound Pirfenidone: oral, 14 days
Excerpt: Experimental purpose: test preventive therapeutic effects of compounds on SD rat pulmonary fibrosis induced by Bleomycin
Model: SD rat pulmonary fibrosis on the left lung; pulmonary fibrosis modelled by injecting Bleomycin into rat trachea
Molding agent: Bleomycin (BLM)
1 ? experimental grouping: efficacy trial for twice, besides common modeling group and Pirfenidone group as control reference, tested compounds were divided into […], i.e. model group (Group -1, n=7, Vehicle), control reference drug (group-2, n=7, Pirfenidone); tested compound WX001 group (Group-3, n=7), tested compound WX002 high dosage group (Group-4, n=7), tested compound WX002 low dosage group (Group-5, n=7) (Table 5)
2 ? Drug administration: Orally administering on the day the model was established, twice a day and administration for 14 day continuously 3 ? Physiological observation of experimental animal: detecting changes in animal weight (test weight before administration every day); detecting animal death rate during test period 4 ? euthanasia of animal after 14 days, formalin was injected into left lung to fix, and test volume and weight of left lung after injection and then test Lung Pathology (Table 6)
Test Results of Experiment: Test of tissue pathology of left lung: pathological evaluation of H&E dye: 1) pathological changes of left lung terminal bronchiole, 2) pathological changes of left lung pulmonary arteriole; pathological evaluation of Masson Thrichrome dye: 3) area of left lung pulmonary fibrosis, 4) score of left lung pulmonary fibrosis.

| SMILES | inhibition of TNF-α level induced by LPS (in words) ([1]; 0.1 mM as final concentration) | inhibition at 100 µM [1] [%] | inhibition at 500 µM [1] [%] | other results |
| --- | --- | --- | --- | --- |
| Cc1cc(-n2cc(C3(C)COC3)ccc2=O)cs1 [WX004] | significant inhibition | 89.5 |  |  |
| O=c1ccc(C2(F)COC2)cn1-c1ccsc1 [WX011] | significant inhibition | 78.8 |  |  |
| Cc1ccc(=O)n(-c2ccccc2)c1 [Pirfenidone, reference compound] |  |  | 51.4 |  |
| CC1(c2ccc(=O)n(-c3csc(Cl)c3)c2)COC1 [WX003] | significant inhibition | 84.7 |  |  |
| CC1(c2ccc(=O)n(-c3cscn3)c2)COC1 [WX005] |  | 61.6 |  |  |
| CC1(c2ccc(=O)n(-c3ccccc3)c2)COC1 [WX001] |  |  | 86.3 | improving tissue damage in the area and margin of pulmonary fibrosis lesions ([2]; oral twice a day for 14 days): good effect; inhibition of TNF-α level induced by LPS (in words) ([1]; 0.5 mM): significant inhibition |
| O=c1ccc(C2(O)COC2)cn1-c1ccsc1 [WX009] |  |  | 51.5 |  |
| CC1(c2ccc(=O)n(-c3ccsc3)c2)COC1 [WX002] | significant inhibition | 74.6 |  | efficacy compared with the reference compound Pirfenidone ([2]; low dose of 50 mpk group): better efficacy than Pirfenidone; preventing the formation of pulmonary fibrosis ([2]; oral twice a day for 14 days, FIG. 5): good effect; improving tissue damage in the area and margin of pulmonary fibrosis lesions ([2]; oral twice a day for 14 days): good effect; efficacy compared with the reference compound Pirfenidone ([2]; same dose of 100 mpk group): better efficacy than Pirfenidone |
